Laboratory results published in patent publication US7671042B2, “Pharmaceutical compositions containing cyclodextrins and taxoids” (priority 1997, dated 2010).
Like-named read-outs stand apart in the source and are kept apart here.

Key:
[1] = aqueous
beagle dogs = experiment: Cardiovascular and respiratory effects following intravenous administration in anaesthetised beagle dogs; type: in vivo, beagle dog
Protocol: The following parameters were recorded or derived and served as indicators of the functional status of the various elements within the cardiovascular and respiratory systems. The units of measurement are stated in parenthesis.
Anaesthesia was induced by i.v. injection of sodium thiopentone and maintained i.v. by a mixture of α-chloralose and pentobarbitone sodium given as required. Body temperature was maintained.
The trachea was cannulated and the canule connected to a pneumotach screen to allow measurement of tidal volume (ml) and the derived parameters of respiration rate (br/min) and minute volume (ml). Catheters were introduced into the right femoral artery and a cephalic vein to facilitate measurements of blood pressure and the administration of vehicle, test substances and anaesthetic respectively. The femoral artery was connected to a heparin/saline filled pressure transducer, coupled to a Grass 7E polygraph. […]
Following a 30 minute stabilization period, the vehicle was administered i.v. at a dose volume of 7.0 ml/kG over a period of 15 minutes. […] The parameters were monitored for a least 45 minutes from the start of infusion. […]
All parameters including high resolution (50 mm/sec) recordings of the ECG were measured at 5 minute intervals during the stabilization period and at 0.5, 1, 2 and 5 minutes intervals post-dose following vehicle and drug administration. […]

[2] = cited from earlier work

CC(=O)O[C@H]1C(=O)[C@@]2(C)[C@H]([C@H](OC(=O)c3ccccc3)[C@]3(O)C[C@H](OC(=O)[C@H](O)[C@@H](NC(=O)c4ccccc4)c4ccccc4)C(C)=C1C3(C)C)[C@]1(OC(C)=O)CO[C@@H]1C[C@@H]2O [paclitaxel]
Dissolved Paclitaxel ([1]; 2% w/v acetyl-γ-cyclodextrin): 4.0 µg/mL
Dissolved Paclitaxel ([1]; 5% w/v acetyl-γ-cyclodextrin): 8.8 µg/mL
Dissolved Paclitaxel ([1]; 10% w/v acetyl-γ-cyclodextrin): 25.0 µg/mL
Dissolved Paclitaxel ([1]; 20% w/v acetyl-γ-cyclodextrin): 48.0 µg/mL
Dissolved Paclitaxel ([1]; 40% w/v acetyl-γ-cyclodextrin): 170 µg/mL
Dissolved Paclitaxel ([1]; 40% w/v acetyl-γ-cyclodextrin, listed as Paclitaxel): 170.0 µg/mL
outcome of i.v. administration (beagle dogs; 6 and 60 mg/m^2 in Cremophor ELP:ethanol 1:1, i.v., animals 1 and 2, administration discontinued): death of the animals
reaction to intravenous administration (beagle dogs; dog, in vivo, iv): anaphylactic type reaction
aqueous solubility ([2]; ambient temperature): about 0.0005 mg/ml
aqueous solubility ([2]; room temperature): about 0.5 μg/ml
